Patent US20210401834A1 (IMBRIA PHARMACEUTICALS, INC., priority 2020, published 2021)
Where two headings read alike, the source gives them in different places.

Key:
[1] = human, in vivo, 150 mg
Experimental: The blood samples were taken via an indwelling intravenous catheter or by direct venipuncture. The exact times of blood sampling were recorded in the eCRF.
The subjects were instructed to empty their bladders completely before study drug administration and at the end of each collection interval. A blank urine sample was collected within 12 hours prior to study drug administration. The exact times of urine collection and the urine weight of the entire interval (before and after addition of any urine stabilizers, if used) were recorded in the eCRF.

[2] = human, in vivo, 200 mg
From the text: The MR formulation of IMB-1018972 to be administered on Day 13 under fed conditions was 1 of the 4 MR formulations administered on Days 1, 4, 7, and 10 under fasted conditions.
The effect of food on the relative oral bioavailability of IMB-1018972 following a single oral administration was explored. This occurred in the single-dose MR part where subjects received the same dose, first under fasted conditions and then under fed conditions.

[3] = Decomposition kinetics of CV-8972 in media simulating the GI tract, 37° C., 0.2 mg/mL (HPLC); assay type: physicochemical
Experimental: The solution stability of CV-8972 was evaluated in multiple media currently used to simulate dissolution and stability conditions in the various sections of the GI tract. As CV-8972 will be subject to hydrolysis as it is dissolving in the GI tract, it will be important to understand these kinetics in terms of designing instant and controlled-release formulations. HPLC methods were used to perform these assessments.

[4] = Phase 1 FIH study, multiple-dose MR part: safety and tolerability; assay type: in vivo, human
Experimental: (§1) AEs were recorded from (first) admission until completion of the follow-up visit. Any clinically significant observations in results of clinical laboratory, 12-lead ECGs, vital signs, or physical examinations were recorded as AEs.
(§2) A treatment-emergent AE (TEAE) was defined as any event not present prior to (the first) administration of the study drug or any event already present that worsened in either severity or frequency following exposure to the study drug.
(§3) The severity of the AEs was rated as mild, moderate, or severe; the relationship between the AEs and the study drug was indicated as none, unlikely, possibly, likely, or definitely. Adverse events assessed as possibly, likely, or definitely were considered related to the study drug; AEs assessed as none or unlikely were considered not related to the study drug.

[5] = pH stability profile of a 1 mg/mL solution of CV-8972 at 23° C.; assay type: physicochemical
Experimental: The pH stability profile is summarized and shown in Table 2 for a 1 mg/mL solution of CV-8972 at 23° C.
The hydrolysis proceeds via the first step shown in FIG. 1, as Nicotinic acid and CV-8814 are the only decomposition products generated. The optimal pH for solution stability appears to be around pH 5-5.1 for a 1 mg/mL solution with acid-catalyzed hydrolysis increasing at pH values less than 5.0 and base-catalyzed hydrolysis increasing above pH 5.0.

[6] = BCS classification from solubility and permeability
From the text: CV-8972 can therefore be considered as BCS Class 1 per se, but the pre-systemic metabolism to CV-8814 and possibly other metabolites may complicate and impact the actual biopharmaceutical absorption profile found in humans.

[7] = Phase 1 FIH study, single-dose MR part: safety and tolerability; assay type: in vivo, human
Experimental: as §1, §2, §3

[8] = Phase 1 FIH study: overall safety (vital signs, 12-lead ECG); assay type: in vivo, human; conditions: after administration as the MR formulations, healthy subjects
Experimental: These assessments were made using an automated device. Body temperature and respiratory rate were measured subsequently.
Safety and tolerability were assessed through AEs, clinical laboratory, vital signs, ECGs, continuous cardiac monitoring (telemetry), and physical examination findings, and any other parameter that was relevant for safety assessment.

With COc1ccc(CN2CCN(CCO)CC2)c(OC)c1OC [CV-8814, 2-[4-[(2,3,4-trimethoxyphenyl)methyl]piperazin-1-yl]ethanol] the “Cmax lower under fed relative to fasted conditions” value [1] was “approximately 36%”, the “effect of food on exposure parameters AUC0-t and AUC0-inf” value [1] was “No evidence for an effect of food” and the “Cmax higher under fed relative to fasted conditions” value [2] was “approximately 42%”. For the same molecule, the “effect of food on exposure parameters AUC0-t and AUC0-inf” value [2] was “No evidence for an effect of food”, the “food effect estimate for AUC0-inf (ratio of geometric means fed/fasted)” value [2] was 1.16 and the “food effect estimate for AUC0-t (ratio of geometric means fed/fasted)” value [2] was 1.16. For the same molecule, the “food effect estimate for Cmax (ratio of geometric means fed/fasted)” value [2] was 1.42.
COc1ccc(CN2CCN(CCOC(=O)c3cccnc3)CC2)c(OC)c1OC [CV-8972, 2-[4-[(2,3,4-trimethoxyphenyl)methyl]piperazin-1-yl]ethyl pyridine-3-carboxylate] gave a half-life at 0.2 mg/mL ([3]; 0.1M HCl, pH 1, 0.1M HCl, pH 1.0, no surfactants) of 3.13 h, a half-life at 0.2 mg/mL ([3]; FaSSGF, pH 1.6, FaSSGF, pH 1.6) of 48.5 h and a half-life at 0.2 mg/mL ([3]; FaSSIF, pH 6.5, FaSSIF, pH 6.5) of 13.5 h. The half-life at 0.2 mg/mL ([3]; FeSSIF (medium simulating the GI tract), pH 5.8, FeSSIF, pH 5.8) was 99.6 h, the half-life at 0.2 mg/mL ([3]; pH 6, BiCarb adj (0.1M HCl neutralized with sodium bicarbonate), pH 6-8.2) was 1.52 h and the “subjects reporting TEAEs” value ([4]; 200 mg 8-hour MR formulation q12h fed, 5 days, 12 subjects) was 100%. For the same molecule, the “number of drug-related TEAEs of flushing (vascular disorders)” value ([4]; multiple-dose MR part) was 2, the “subjects with TEAEs considered not related to the study drug” value ([4]; multiple-dose MR part) was 75% and the “subjects with TEAEs considered related to the study drug” value ([4]; multiple-dose MR part) was 58.3%. The “subjects with TEAEs, SOC gastrointestinal disorders” value ([4]; multiple-dose MR part) was 41.7%, the “subjects with TEAEs, SOC general disorders and administration site conditions” value ([4]; multiple-dose MR part) was 33.3% and the “subjects with TEAEs, SOC musculoskeletal and connective tissue disorders” value ([4]; multiple-dose MR part) was 33.3%. For the same molecule, the “subjects with TEAEs, SOC nervous system disorders” value ([4]; multiple-dose MR part) was 58.3%, the “subjects with TEAEs, SOC renal and urinary disorders (pollakiuria)” value ([4]; multiple-dose MR part) was 33.3% and the “subjects with drug-related TEAEs of flushing (vascular disorders)” value ([4]; multiple-dose MR part) was 16.7%. The “subjects with drug-related TEAEs of pollakiuria” value ([4]; multiple-dose MR part) was 33.3%, the “subjects with drug-related TEAEs, nervous system disorders” value ([4]; multiple-dose MR part) was 16.7% and the half-life at 1 mg/mL ([5]; 20 mM ammonium acetate buffer, pH 5.05, 20 mM Am. Acetate) was 658 h. It also gave a half-life at 1 mg/mL ([5]; 20 mM phosphate buffer, pH 3.52, 20 mM Phos) of 254 h, a half-life at 1 mg/mL ([5]; 20 mM phosphate buffer, pH 6.5, 20 mM Phos) of 61.9 h and a half-life at 1 mg/mL ([5]; 20 mM phosphate buffer, pH 6.88, 20 mM Phos) of 33.6 h. For the same molecule, the “1st order Kobs” value ([5]; pH 2.74, Water) was 0.00516 hr − 1, the half-life at 1 mg/mL ([5]; pH 2.74, Water) was 134 h and the “1st order Kobs” value ([5]; pH 3.52, 20 mM Phos) was 0.00273 hr − 1. For the same molecule, the “1st order Kobs” value ([5]; pH 5.05, 20 mM Am. Acetate) was 0.00105 hr − 1, the “1st order Kobs” value ([5]; pH 5.64, 20 mM Phos) was 0.00248 hr − 1 and the “1st order Kobs” value ([5]; pH 6.5, 20 mM Phos) was 0.01119 hr − 1. The “1st order Kobs” value ([5]; pH 6.88, 20 mM Phos) was 0.02064 hr − 1, the half-life at 1 mg/mL ([5]; phosphate buffer, pH 5.64, 20 mM Phos) was 280 h and the BCS class [6] was “BCS Class 1”. The “number of TEAEs of mild severity” value ([7]; of 37 TEAEs) was “Thirty-six”, the “number of TEAEs of moderate severity” value ([7]; of 37 TEAEs) was 1 and the tolerability ([7]; single doses of 50 mg and 200 mg MR formulations (4-hour, 8-hour) fasted, 200 mg 8-hour MR fed, healthy subjects) was “well tolerated”. For the same molecule, the “subjects with TEAEs considered not related to the study drug” value ([7]; single-dose MR part) was 83.3%, the “subjects with TEAEs considered related to the study drug” value ([7]; single-dose MR part) was 33.3% and the “subjects with TEAEs, SOC gastrointestinal disorders” value ([7]; single-dose MR part) was 33.3%. The “subjects with TEAEs, SOC general disorders and administration site conditions” value ([7]; single-dose MR part) was 58.3%, the “subjects with TEAEs, SOC nervous system disorders” value ([7]; single-dose MR part) was 58.3% and the “subjects with drug-related TEAEs of pollakiuria” value ([7]; single-dose MR part) was 16.7%. The “subjects reporting TEAEs” value ([7]; single-dose MR part, 12 subjects) was 83.3% and the “hemodynamic changes and QTc-interval” value [8] was “no findings of hemodynamic changes, nor changes in the QTc-interval”.
In the case of COc1ccc(CN2CCNCC2)c(OC)c1OC [trimetazidine, reference compound], the “effect of food on exposure parameters Cmax, AUC0-t and AUC0-inf” value [1] is reported as “No evidence for an effect of food”, the “effect of food on exposure parameters Cmax, AUC0-t and AUC0-inf” value [2] is reported as “No evidence for an effect of food” and the “food effect estimate for AUC0-inf (ratio of geometric means fed/fasted)” value [2] is reported as 0.97. The “food effect estimate for AUC0-t (ratio of geometric means fed/fasted)” value [2] was 0.99 and the “food effect estimate for Cmax (ratio of geometric means fed/fasted)” value [2] was 1.10.
